These are literature values, as cited in patent US10952975B2, “Compositions and methods for treatment of cancer” (priority 2019, dated 2021).

The conditions of series [1]: clinical studies.
For series [2], the target named is T1, MAT2A (Homo sapiens, UniProt P31153). The conditions noted are these: cell-free; [L-Met]=[ATP]=1 mM, [MAT2A]=10 μg/mL; 20 min preincubation, 30 min reaction; read-out: IC50, MAT2A-catalyzed SAM synthesis.
The subject of another series is LS174T cells. The note with it: 36 h, 10 μM FIDAS-3.
Series [3] deals with T1, MAT2A. The conditions noted are these: in vitro.
For series [4] the following is noted: patients with advanced solid tumors.

Where two headings read alike, the source gives them in different places.

T1 sequence (P31153 whole entry): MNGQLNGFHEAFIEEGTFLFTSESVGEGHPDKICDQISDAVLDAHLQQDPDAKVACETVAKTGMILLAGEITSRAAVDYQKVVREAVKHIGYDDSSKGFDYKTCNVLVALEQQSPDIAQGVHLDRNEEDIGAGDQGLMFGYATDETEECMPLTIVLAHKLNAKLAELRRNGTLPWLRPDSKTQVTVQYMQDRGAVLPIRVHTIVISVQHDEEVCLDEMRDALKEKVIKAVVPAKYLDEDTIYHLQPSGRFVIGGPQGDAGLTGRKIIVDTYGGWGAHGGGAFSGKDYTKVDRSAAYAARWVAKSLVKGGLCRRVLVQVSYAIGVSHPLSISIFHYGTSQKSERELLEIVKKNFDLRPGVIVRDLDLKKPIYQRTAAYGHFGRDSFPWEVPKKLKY

For `COc1ccc(/C=C\c2cc(OC)c(OC)c(OC)c2)cc1OP(=O)([O-])[O-].[Na+].[Na+]` [CA-4P, Disodium CA-4-3-O-phosphate], the maximum tolerated dose in series [1] was 60-68 mg/m^2.
With `Cc1ccc2c(=O)c3cccc(CC(=O)O)c3oc2c1C` [DMXAA, 5,6-dimethylxanthenone-4-acetic acid], the “time to arrest of tumor blood flow after administration” value with murine tumors is reported as ≤ 30 min.
One may read the IC50 as the midpoint of a concentration-inhibition curve. Regarding `CN(C)c1ccc(/C=C/c2c(F)cccc2F)cc1` [FIDAS-3], at MAT2A [2], the IC50 is 4.9 µM. Moreover, in the series with LS174T cells, the “decrease of SAH level” value is reported as 56% and the “decrease of SAM level” value is on record as 64%. On MAT2A [3], the “competition against SAM for MAT2A binding” value is listed as “effectively competes against SAM”.
Take `COc1cc(/C=C\c2ccc(OC)c(OP(=O)(O)O)c2OP(=O)(O)O)cc(OC)c1OC` [Oxi4503, Tetrasodium Combretastatin A-1 2′,3′-O-diphosphate]: in series [4], the “dose at which a tumor response was seen” value is on record as 14 mg/m^2 and the “doses with maximum tumor perfusion reductions” value is recorded as ≥ 11 mg/m^2. In addition, the maximum tolerated dose in series [4] (escalation to 14 mg/m^2 was possible) is given as 8.5 mg/m^2.
